Data as given in patent US20260258039A1, “AROMATIC COMPOUND, METHOD FOR PREPARING SAME, AND USE THEREOF IN PREPARATION OF ESTROGEN RECEPTOR DEGRADER” (Hinova Pharmaceuticals Inc., priority 2022, published 2026).
Like-named read-outs stand apart in the source and are kept apart here.

Biological target: T1, ER (Homo sapiens, UniProt P03372)
T1 construct: T47D breast cancer cells were subcultured in cell culture medium; endogenous in cells; host or cells: T47D breast cancer cells
T1 sequence (P03372 1-595): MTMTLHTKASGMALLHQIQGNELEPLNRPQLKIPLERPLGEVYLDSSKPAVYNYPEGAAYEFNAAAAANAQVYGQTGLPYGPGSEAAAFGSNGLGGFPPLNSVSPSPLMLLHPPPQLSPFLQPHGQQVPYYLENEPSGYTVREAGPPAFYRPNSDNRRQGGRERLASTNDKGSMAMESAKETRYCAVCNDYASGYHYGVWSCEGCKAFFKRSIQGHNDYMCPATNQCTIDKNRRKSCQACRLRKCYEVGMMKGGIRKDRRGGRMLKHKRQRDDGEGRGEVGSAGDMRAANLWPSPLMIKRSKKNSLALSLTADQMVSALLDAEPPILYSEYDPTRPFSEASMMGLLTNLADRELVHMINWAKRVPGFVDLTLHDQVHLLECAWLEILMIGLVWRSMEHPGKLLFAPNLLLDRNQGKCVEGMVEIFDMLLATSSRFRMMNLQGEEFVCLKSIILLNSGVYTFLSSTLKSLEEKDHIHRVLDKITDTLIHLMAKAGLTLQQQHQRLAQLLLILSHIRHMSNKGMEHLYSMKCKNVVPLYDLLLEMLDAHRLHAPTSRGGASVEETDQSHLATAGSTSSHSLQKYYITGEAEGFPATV
Assay: Degradation activities on ER (ELISA) in T47D breast cancer cells
Type: cell-based
Settings: T47D cells, 24 h, ELISA; for DC50: concentration required to degrade 50% of the target protein; for Dmax: maximum percentage of target protein degraded
Method: T47D breast cancer cells were subcultured in cell culture medium, and then the cells in good growth condition were seeded into 96-well plates at 80 µL/well, with 2.5×10^4 cells per well. The cells were incubated in a 37° C., 5% CO2 incubator for 3 days. The drug was prepared into a 10 mM stock solution with dimethyl sulfoxide (DMSO). Prior to use, the stock solution was diluted with cell culture medium to obtain six final concentrations (100 nM, 25 nM, 6.25 nM, 1.56 nM, 0.39 nM, and […]), and gently mixed. Additionally, negative control wells (only containing culture medium) and positive control wells (only containing cells and DMSO) were included. After the cells were incubated in the incubator for 24 h, the cells were rinsed once with ice-cold 1×PBS. […] The plate was sealed with plastic film, and incubated in a 37° C. incubator for 2 h. The film was removed. 200 μL of 1× washing buffer was added to each well, and then the plate was shaken for 5 min. The washing buffer was discarded, and the plate was pat-dried. The plate was washed four times. 100 μL of freshly prepared detection antibody (green) was added to each well of the ELISA plate. The plate was sealed with plastic film, and then incubated in a 37° C. incubator for 1 h. The film was removed, and the detection antibody was discarded. The plate was pat-dried. 200 μL of 1× washing buffer was added to each well, and then the plate was shaken for 5 min. The washing buffer was discarded, and the plate was pat-dried. The plate was washed four times. 100 μL of freshly prepared HRP-labeled secondary antibody (red) was added to each well of the ELISA plate. The plate was sealed with plastic film, and incubated in a 37° C. incubator for 30 min. The film was removed, the secondary antibody was discarded, and the plate was pat-dried, followed by adding 200 μL of 1× washing buffer to each well. The plate was shaken for 5 min, and the washing buffer was discarded before pat-drying the plate. The plate was washed four times. 100 μl of TMB substrate was added to each well of the ELISA plate, followed by incubating in a 37° C. incubator for 5 min. 100 μL of STOP solution was added to each well of the ELISA plate, and the plate was gently shaken for a few seconds. The bottom of each well was wiped with lint-free cloth. Within 30 min after adding the STOP solution, the absorbance was read at 450 nm. […] The data were analyzed using the Dose-response equation in GraphPad Prism8 software to obtain the DC50 and Dmax values, and both of them are important indicators for measuring the degradation activities of compounds on target proteins. […] The Dmax value represents the maximum percentage of target protein that can be degraded by the compound.

SMILES	DC50	Dmax (read-out: Dmax)	Dmax
O=C1CCC(N2Cc3cc(N4CC5(CCN(CC6CCN(c7c(F)cc([C@@H]8c9ccc(O)cc9OC[C@@H]8c8cccc(F)c8F)cc7F)CC6)CC5)C4)ccc3C2=O)C(=O)N1 (stereo partly drawn) [Example 48, 3-(5-(7-((1-(2,6-difluoro-4-(cis-3-(2,3-difluorophenyl)-7-hydroxychroman-4-yl)phenyl)piperidin-4-yl)methyl)-2,7-diazaspiro[3.5]nonane-2-yl)-1-oxoisoinodolin-2-yl)piperidin-2,6-dione]	< 0.01 µM	50 to 75%	–
O=C1CCC(N2Cc3cc(N4CC5(CCN(CC6CCN(c7c(F)cc([C@@H]8c9ccc(OCc%10ccccc%10)cc9OC[C@@H]8c8ccccc8F)cc7F)CC6)CC5)C4)ccc3C2=O)C(=O)N1 (stereo partly drawn) [Example 51, 3-(5-(7-((1-(4-(cis-7-(benzyloxy)-3-(2-fluorophenyl)chroman-4-yl)-2,6-difluorophenyl)piperidin-4-yl)methyl)-2,7-diazaspiro[3.5]nonane-2-yl)-1-oxoisoinodolin-2-yl)piperidin-2,6-one]	> 0.1 µM	< 50%	–
O=C1CCC(N2Cc3cc(N4CC5(CCN(CC6CCN(c7c(F)cc(C8=C(c9ccccc9F)COc9cc(OCc%10ccccc%10)ccc98)cc7F)CC6)CC5)C4)ccc3C2=O)C(=O)N1 (stereo not drawn) [Example 52]	> 0.1 µM	< 50%	–
O=C1CCC(N2Cc3cc(N4CCC5(CCN(C6CCN(c7ccc([C@@H]8c9ccc(O)cc9CC[C@@H]8c8ccccc8)cc7)CC6)C5)C4)ccc3C2=O)C(=O)N1 (stereo partly drawn) [Example 66, 3-(5-(7-(1-(4-(6-hydroxyl-2-phenyl-1,2,3,4-tetrahydronaphthalen-1-yl)phenyl)piperidin-4-yl)-2,7-diazaspiro[4.4]nonane-2-yl)-1-oxoisoinodolin-2-yl)piperidin-2,6-dione]	> 0.1 µM	< 50%	–
O=C1CCC(N2Cc3cc(N4CCC(N5CC6(CCN(c7ccc([C@@H]8c9ccc(O)cc9CC[C@@H]8c8ccccc8F)cc7F)CC6)C5)CC4)ccc3C2=O)C(=O)N1 (stereo partly drawn) [Example 67, 3-(5-(4-(7-(2-fluoro-4-((1,2-cis)-2-(2-fluorophenyl)-6-hydroxyl-1,2,3,4-tetrahydronaphthalen-1-yl)phenyl)-2,7-diazaspiro[3.5]nonane-2-yl)piperidin-1-yl)-1-oxoisoinodolin-2-yl)pyridine-2,6-dione]	< 0.01 µM	> 75%	–
O=C1CCC(N2Cc3cc(N4CCC(N5CC6(CCN(c7ccc([C@@H]8c9ccc(O)cc9OC[C@@H]8c8ccccc8F)cc7F)CC6)C5)CC4)ccc3C2=O)C(=O)N1 (stereo partly drawn) [Example 68, 3-(5-(4-(7-(2-fluoro-4-((3,4-cis)-3-(2-fluorophenyl)-7-hydroxyl-chroman-4-yl)phenyl)-2,7-diazaspiro[3.5]nonane-2-yl)piperidin-1-yl)-1-oxoisoinodolin-2-yl)pyridine-2,6-dione]	< 0.01 µM	> 75%	–
O=C1CCC(N2Cc3cc(N4CCC(N5CC6(CCN(c7ccc([C@@H]8c9ccc(O)cc9CC[C@@H]8c8ccccc8)cc7F)CC6)C5)CC4)ccc3C2=O)C(=O)N1 (stereo partly drawn) [Example 69, 3-(5-(4-(7-(2-fluoro-4-((1,2-cis)-6-hydroxyl-2-phenyl-1,2,3,4-tetrahydronaphthalen-1-yl)phenyl)-2,7-diazaspiro[3.5]nonane-2-yl)piperidin-1-yl)-1-oxoisoinodolin-2-yl)pyridine-2,6-dione]	< 0.01 µM	> 75%	–
O=C1CCC(N2Cc3cc(N4CC5(CCN(CC6CCN(c7ccc([C@H]8c9ccc(O)cc9OC[C@H]8c8c(F)cccc8F)cc7F)CC6)CC5)C4)ccc3C2=O)C(=O)N1 (stereo partly drawn) [Example 71, 3-(5-(7-((1-(4-((3R,4S)-3-(2,6-difluorophenyl)-7-hydroxychroman-4-yl)-2-fluorophenyl)piperidin-4-yl)methyl)-2,7-diazaspiro[3.5]nonane-2-yl)-1-oxoisoinodolin-2-yl)piperidin-2,6-dione]	> 0.1 µM	< 50%	–
O=C1CCC(N2Cc3cc(N4CC5(CCN(CC6CCN(c7ccc([C@H]8c9ccc(O)cc9OC[C@H]8c8c(F)cccc8F)cc7)CC6)CC5)C4)ccc3C2=O)C(=O)N1 (stereo partly drawn) [Example 72, 3-(5-(7-((1-(4-((3R,4S)-3-(2,6-difluorophenyl)-7-hydroxychroman-4-yl)phenyl)piperidin-4-yl)methyl)-2,7-diazaspiro[3.5]nonane-2-yl)-1-oxoisoindol-2-yl)piperidin-2,6-dione]	–	< 50%	–
O=C1CCC(N2Cc3cc(N4CC5(CCN(CC6CCN(c7ccc([C@@H]8c9ccc(O)cc9OC[C@@H]8c8c(F)cccc8F)cc7)CC6)CC5)C4)ccc3C2=O)C(=O)N1 (stereo partly drawn) [Example 77, 3-(5-(7-((1-(4-((3S,4R)-3-(2,6-difluorophenyl)-7-hydroxychroman-4-yl)phenyl)piperidin-4-yl)methyl)-2,7-diazaspiro[3.5]nonane-2-yl)-1-oxoisoinodolin-2-yl)piperidin-2,6-dione]	–	–	B (B: 75-50%)
O=C1CC[C@@H](N2Cc3cc(N4CC5(CCN(CC6CCN(c7ccc([C@@H]8c9ccc(O)cc9OC[C@@H]8c8ccccc8F)cc7)CC6)CC5)C4)ccc3C2=O)C(=O)N1 [Example 90, (R)-3-(5-(7-((1-(4-((3S, 4R)-3-(2-fluorophenyl)-7-hydroxychroman-4-yl)phenyl)piperidin-4-yl)methyl)-2,7-diazaspiro[3.5]nonane-2-yl)-1-oxoisoinodolin-2-yl)piperidin-2,6-dione]	> 0.1 µM	< 50%	–
O=C1CC[C@H](N2Cc3cc(N4CC5(CCN(CC6CCN(c7ccc([C@@H]8c9ccc(O)cc9OC[C@@H]8c8ccccc8F)cc7)CC6)CC5)C4)ccc3C2=O)C(=O)N1 [Example 91, (S)-3-(5-(7-((1-(4-((3S, 4R)-3-(2-fluorophenyl)-7-hydroxychroman-4-yl)phenyl)piperidin-4-yl)methyl)-2,7-diazaspiro[3.5]nonane-2-yl)-1-oxoisoinodolin-2-yl)piperidin-2,6-dione]	< 0.01 µM	> 75%	–
O=C1CCC(N2Cc3cc(N4CC5(CCN(CC6CCN(c7ccc([C@@H]8c9ccc(O)cc9OC[C@@H]8CC(F)(F)F)cc7)CC6)CC5)C4)ccc3C2=O)C(=O)N1 (stereo partly drawn) [Example 92, 3-(5-(7-((1-(4-(cis-7-hydroxyl-3-(2,2,2-trifluoroethyl)chroman-4-yl)phenyl)piperidin-4-yl)methyl)-2,7-diazaspiro[3.5]nonane-2-yl)-1-oxoisoinodolin-2-yl)piperidin-2,6-dione]	0.01 to 0.05 µM	50 to 75%	–
